Assay results: publication PMC10692721, “Drug discovery for heart failure targeting myosin-binding protein C” (The Journal of Biological Chemistry, 2023)

Tests used:
[1] = tested on: TMR-cC0-C2 (C0-C2 fragment of human cMyBP-C); experiment: FLT-TMR concentration-response assay (FLT of TMR on cC0-C2, no actin); type: binding
Protocol: (§1) Compounds identified as initial hits were further examined to determine the concentration–response curves for seven conditions ([1]): FMAL-actin alone identified actin-binding compounds that alter the FLT of FMAL-actin ([2]).
(§2) Fluorescence lifetime (FLT) measurements were acquired using a high-throughput FLT plate reader (Fluorescence Innovations, Inc) ([14], [27]), provided by Photonic Pharma LLC. […] The observed waveforms were analyzed as described previously ([15], [28]).
(§3) The primary hits were dissolved in DMSO to make a 10 mM stock solution, which was serially diluted in 96-well mother plates. Hits were screened at eight concentrations (0.5–100 μM). […] Compounds (1 μl) were transferred from the mother plates into 384-well plates using a Mosquito HV liquid handler (TTP Labtech Ltd, Hertfordshire, UK). The same procedure of dispensing as for the pilot screening was applied in the concentration-response assays. Concentration dependence of the FLT-FRET (E/EDMSO) or FLT-TMR (Δτ) change data was fit to a Hill equation only under certain conditions to help guide the eye (Fig. 4).

[2] = tested on: PKA-phosphorylated TMR-cC0-C2 (cC0-C2#P); experiment: FLT-TMR concentration-response assay, PKA-phosphorylated cC0-C2; type: binding, human
Protocol: as §1, §2, §3

[3] = tested on: TMR-fC1-C2 (C1-C2 of fast skeletal MyBP-C); experiment: FLT-TMR concentration-response assay, fC1-C2; type: binding
Protocol: as §1, §2, §3

[4] = tested on: FMAL-actin/TMR-cC0-C2 interaction; experiment: FLT-FRET concentration-response assay, FMAL-actin plus TMR-cC0-C2; type: binding, human; conditions: for fold effect on increased FRET (or binding) (Table 2): comparison not given; for specificity of FLT-FRET effect for unphosphorylated over phosphorylated cC0-C2: effect on cC0-C2 compared to phosphorylated cC0-C2 (Tables 1 and 2); for effect on FLT-FRET / binding between FMAL-actin and TMR-cC0-C2 (in words): unphosphorylated cC0-C2
Protocol: as §1, §2, §3

[5] = tested on: FMAL-actin plus TMR-cC0-C2; experiment: Selleck library HTS, 473 nm excitation (FLT of FMAL-actin with TMR-cC0-C2, FLT-FRET); type: binding, human; conditions: for 473-nm Δτ, Repeat 1 / 473-nm Δτ, Repeat 2: initial screen, 30 μM compound; for 473-nm z-score (based on avg Δτ): robust z-score, hit threshold ±4, 30 μM compound
Protocol: as §2
(§4) In total, 50 nl of each solution was dispensed in DMSO using an automated Echo 550 acoustic liquid dispenser (Labcyte). Compounds were formatted into the assay plates, at a final concentration of 30 μM, with the first two and second to last columns loaded with DMSO only (compound-free controls). In the final column, 30 μM of suramin was loaded as a positive control (tool compound). These assay plates were then heat-sealed using a PlateLoc Thermal Microplate Sealer (Agilent Technologies) and stored at −20 °C. Before screening, compound plates were equilibrated to room temperature (∼25 °C). […] Plates were incubated at room temperature for 60 min before recording the data with the fluorescence lifetime plate reader.
After fitting the waveforms with a single exponential decay to quantify donor FLT, the change in FLT (Δτ) was computed by performing a moving median subtraction in the order the plate was scanned with a window size of half a plate row […]. The reasons for this are twofold. Firstly, plate gradients are often observed due to the heating of the digitizer during acquisition.
To account for the necessity to correct for plate gradients in the computation of E, the median τDMSO prior to the application of the moving median correction was added to each well’s Δτ value to recover a rescaled value of τ.

[6] = tested on: TMR-cC0-C2; experiment: Selleck library HTS, 532 nm excitation (FLT of TMR-cC0-C2 in presence of FMAL-actin); type: binding, human; conditions: for 532-nm Δτ, Repeat 1 / 532-nm Δτ, Repeat 2: initial screen, 30 μM compound; for 532-nm z-score (based on avg Δτ): robust z-score, hit threshold ±4, 30 μM compound
Protocol: as §2, §4
Hits that exceeded the z-score hit criteria in the donor-only screen were excluded from consideration. To remove compounds with confounding fluorescence properties, a similarity index (SI, specifically the cosine distance, Equation 5) was computed using data from the SUPR instrument by comparing a region (500–540 nm) of the donor-only spectrum (I^(a)) for each well to that of the plate-wide average DMSO spectrum (I^(b)) in the same wavelength band ([29]). Compounds that exceeded an SI robust z-score of 4 were deemed likely fluorescent compounds and removed from consideration.(5) SI=1−∑Ii(a).Ii(b)/∑Ii(a).Ii(a)∑Ii(b).Ii(b)

[7] = tested on: FMAL-actin/TMR-fC1-C2 interaction; experiment: FLT-FRET concentration-response assay, FMAL-actin plus TMR-fC1-C2; type: binding
Protocol: as §1, §2, §3

[8] = concentration-response, no actin

Molecule | cC0-C2/cC0-C2#P (ratio of FLT changes) ([1]; 60 μM compound) | cC0-C2 FLT change (% change from DMSO, FLT of TMR-MyBP-C) ([1]; 60 μM compound) [%] | cC0-C2#P FLT change (% change from DMSO, FLT of TMR-MyBP-C) ([2]; 60 μM compound) [%] | cC0-C2/fC1-C2 (ratio of FLT changes) ([3]; 60 μM compound) | fC1-C2 FLT change (% change from DMSO, FLT of TMR-MyBP-C) ([3]; 60 μM compound) [%] | fold effect on increased FRET (or binding) (Table 2) [4] | specificity of FLT-FRET effect for unphosphorylated over phosphorylated cC0-C2 [4] | 473-nm Δτ, Repeat 1 [5] [ns] | 473-nm Δτ, Repeat 2 [5] [ns] | 473-nm z-score (based on avg Δτ) [5] | 532-nm Δτ, Repeat 1 [6] [ns] | 532-nm Δτ, Repeat 2 [6] [ns] | 532-nm z-score (based on avg Δτ) [6] | further results
C[C@@H]1O[C@@H](O[C@H]2[C@H](O[C@H]3CC[C@@]4(C)[C@@H](CC[C@]5(C)[C@@H]4CC=C4[C@@H]6CC(C)(C)CC[C@]6(C(=O)O)CC[C@]45C)[C@]3(C)CO)OC[C@H](O)[C@@H]2O)[C@H](O)[C@H](O)[C@H]1O [α-Hederin] | 0.9 | 6.7 | 7.1 | 1.0 | 6.7 | fivefold or greater | 13–54 fold | -0.087 | -0.051 | -3.83 | 0.105 | 0.175 | 8.58 | –
Sacubitril/valsartan [Sacubitril/valsartan (LCZ696)] | – | – | – | – | – | – | stronger reduction of FRET with non-phosphorylated than phosphorylated | 0.140 | 0.095 | 6.60 | -0.025 | 0.012 | -0.37 | effect on FLT of TMR-cC0-C2 (in words) [1, 8]: do not affect; effect on FLT of TMR-fC1-C2 (in words) [3, 8]: do not affect; effect on FLT-FRET / binding between FMAL-actin and TMR-cC0-C2 (in words) [4]: decreased; effect on FLT-FRET / binding between FMAL-actin and TMR-fC1-C2 (in words) [7]: decreased
CCCCC(=O)N(Cc1ccc(-c2ccccc2-c2nnn[nH]2)cc1)[C@H](C(=O)O)C(C)C [Valsartan] | – | – | – | – | – | – | stronger reduction of FRET with non-phosphorylated than phosphorylated | 0.149 | 0.058 | 5.83 | 0.000 | 0.013 | 0.44 | effect on FLT-FRET / binding between FMAL-actin and TMR-cC0-C2 (in words) [4]: decreased; effect on FLT-FRET / binding between FMAL-actin and TMR-fC1-C2 (in words) [7]: decreased
C[C@H]1O[C@@H](O[C@H]2CC[C@@]3(C)[C@@H](CC[C@]4(C)[C@@H]3C=C[C@]35OC[C@@]6(CCC(C)(C)C[C@H]63)[C@H](O)C[C@]54C)[C@]2(C)CO)[C@H](O)[C@@H](O[C@@H]2O[C@H](CO)[C@@H](O)[C@H](O)[C@H]2O)[C@H]1O [Saikosaponin D] | 0.9 | 5.4 | 6.3 | 1.3 | 4.2 | fivefold or greater | 13–54 fold | -0.122 | -0.094 | -5.99 | 0.065 | 0.086 | 4.65 | –
Verteporfin | – | – | – | – | – | fivefold or greater | – | 0.093 | 0.064 | 4.41 | 0.065 | 0.075 | 4.32 | cC0-C2/cC0-C2#P (ratio of FLT changes) ([1]; 10 μM compound (∗)): 0.8; cC0-C2 FLT change (% change from DMSO, FLT of TMR-MyBP-C) ([1]; 10 μM compound (∗)): 5.5%; cC0-C2#P FLT change (% change from DMSO, FLT of TMR-MyBP-C) ([2]; 10 μM compound (∗)): 6.8%; cC0-C2/fC1-C2 (ratio of FLT changes) ([3]; 10 μM compound (∗)): 2.2; fC1-C2 FLT change (% change from DMSO, FLT of TMR-MyBP-C) ([3]; 10 μM compound (∗)): 2.5%; specificity of FLT-FRET effect for cC0-C2 over fC1-C2 ([4]; effect on cC0-C2 compared to fC1-C2 (Tables 1 and 2)): 22.4 fold
Cc1cnc(C(=O)N[C@H]2CCCCC/C=C\[C@@H]3C[C@@]3(C(=O)NS(=O)(=O)C3CC3)NC(=O)[C@@H]3C[C@@H](Oc4nc5ccccc5c5ccccc45)CN3C2=O)cn1 [Paritaprevir (ABT-450), Paritaprevir] | 1.2 | 23.8 | 20.3 | 2.2 | 11.0 | – | – | 0.115 | 0.058 | 4.85 | 0.220 | 0.254 | 14.52 | –
C[C@@H]1O[C@@H](OC[C@H]2O[C@@H](Oc3c(-c4ccc(OCCO)c(OCCO)c4)oc4cc(OCCO)cc(O)c4c3=O)[C@H](O)[C@@H](O)[C@@H]2O)[C@H](O)[C@H](O)[C@H]1O [Troxerutin] | 0.8 | 6.1 | 7.3 | 1.0 | 6.0 | – | – | -0.024 | -0.024 | -1.32 | 0.074 | 0.088 | 4.99 | –
CC1(C)CC[C@]2(C(=O)O)CC[C@]3(C)C(=CC[C@@H]4[C@@]5(C)CC[C@H](O)[C@@](C)(CO)[C@@H]5CC[C@]43C)[C@@H]2C1 [Hederagenin] | 0.7 | 2.5 | 3.6 | 1.1 | 2.3 | – | – | 0.083 | 0.060 | 4.06 | -0.038 | -0.038 | -2.29 | –
